The subject of data set [1] is GS-NS0 cell line 6A1(100)3. As to the kind of experiment: GS-NS0 6A1 fed-batch culture (shake flask / airlift bioreactor): growth and antibody productivity by protein A-HPLC. To be noted: for single cell productivity (qp): fed-batch shake flask. The protocol:
(§1) Where not specified, antibody productivity or titer was determined by protein A-HPLC.
The GS-NS0 cell line 6A1(100)3, 6A1 for short, secreting recombinant mouse/human chimeric IgG cB72.3 (Bebbington, 1992, supra) was used in all experimental settings under this section. Cell culture was either carried out in shake flask culture or in a fed-batch mode in a 101 standard airlift bioreactor, essentially as described (Bebbington, 1992). Feeds essentially comprised amino acids and carbohydrate as described above for high-density media and fermentation, respectively. Feed volume was at 4% of post-inocculation volume. Feed was initiated at a rate of 0.2 ml/Lh when viable cell density exceeded 14×10^5 cells/ml. Temperature was controlled at 36.5 degree centigrade; for airlift, air saturation was at 15%. pH was controlled at pH 7.00. Culture was inoculated at 2×10^5 viable cells/ml. Medium is serum- and essentially protein-free growth medium ProCH04-CDM (BioWhittaker) supplemented with […] methionine sulfoximine (MSX). Cells were pre-adapted to medium. […] Positively, it did prolong stationary phase upon fermentation.
Cumulative cell time (10^6 cell/h ml) was calculated by integration of the cell growth curve, essentially as described by Renard et al. (1988, Biotechnology Letters 10, 91-96).
Either sodium acetate or potassium acetate were added to shake flask culture during mid-exponential growth phase to the final concentrations stated in the respective sections of the table of FIG. 1. Cultures were counted daily by Trypan blue method and samples were taken for product analysis by means of protein A fractionation and HPLC analysis.
Duplicate cultures both for control and 10 mM sodium acetate supplemented culture were tested for viable cell concentration (determined by Trypan blue exclusion standard counting test). Feed was started at day 4. The acetate was not fed during growth phase as in FIG. 1 but was included in cell culture production medium right away to which the inocculum cells were added. […] The CCT remained essentially similar for all cultures.
Exp. 2 was conducted essentially as described above for exp. 1/FIG. 2, except that now 7.5 mM sodium acetate and a proprietary high-density culture medium was used, similar to the lipid supplemented high-density media described in EP435 911 A but distinct in employing less ethanolamine and no thioglycerole and keeping Tryptophan concentration constant at 19 mM by sensor-controlled automatic feeding. […] In contrast to exp. 1, the same maximum viable cell density could be achieved in the presence of actetate as compared to the control without acetate in the absence of any adverse effect on duration of stationary phase growth. Similarly, product concentration increased steadily over control and over time (FIG. 6).
In the permissible range, no increase in productivity could be seen at all, not even at the single cell level. The experiment was conducted essentially as described in exp. 1/FIG. 2, except that butyrate was added in the amounts shown instead of acetate. […] FIG. 9-11 show the effect of butyrate addition on CCT, antibody titer at harvest and single cell specific productivity (qp).

Data set [2] deals with hybridoma cell line VPM 8. The data set is described as follows: VPM 8 hybridoma culture: CCT, harvest antibody titer, specific productivity. The protocol: as §1
A dose response study for addition of sodium acetate was carried out for hybridoma cell line VPM 8 (ECACC No. 93113024, European Collection of cell cultures, supra) essentially as described in exp. 3, except that VPM 8 was grown in commercial, protein-free medium CD-Hybridoma (Invitrogen/U.K.) and in that no MSX was added, since not being a GS cell line. VPM 8 is a mouse hybridoma that was generated by conventional means of cell fusion with non-secreting myeloma cells and secretes a murine IgG1 antibody.
The experiment has been carried out essentially as described in exp. 5, except that acetate was substituted with n-butyrate in the amounts stated in the figures.

For data set [3], the system named is cultured human endothelial cells. To be noted: acetate at 5 mM; cited from earlier work.
The next data set deals with CHO cell culture. Conditions: added to medium with 1 mM sodium butyrate; lithium salts 10 mM, LPS 1 μg/ml, sodium acetate 10 mM; cited from earlier work.
[4] abbreviates: added during mid-exponential growth phase.
Where [5] appears, read: 7.5 mM, high-density medium, Experiment 2.
Where [6] appears, read: CD-Hybridoma protein-free medium, Experiment 5.

We go through seven compounds from patent publication US8338177B2, “Cell culture medium” (Lonza Biologics PLC, priority 2002, dated 2012).

`CCCC(=O)[O-].[Na+]` [Butyrate, sodium n-butyrate, reference compound]: the “dose strongly toxic to the cells (rapid decrease of viable cell density)” value in data set [1] (Experiment 4) is listed as > 1 mM. In data set [1] (butyrate added instead of acetate, Experiment 4), the antibody productivity entry was “does not increase antibody productivity”. In addition, in data set [2] (Experiment 6), the antibody titer result is “not effective in increasing antibody titer” and the “toxicity for the cell line” value was “exceptional toxicity”. Also, the “expression-enhancing effect on tPA production” value (from here on “expression-enhancing effect”) in data set [3] is listed as “outstanding effect”.
`[Cl-].[Li+]` [LiCl, reference compound]: the “modification of the effect of acetate addition” value in data set [1] (feed supplemented to final approx. 1-10 mM, data not shown) is “did not prove to modify the effect of acetate addition in any way”.
Consider `CC(=O)[O-].[K+]` [potassium acetate], for which the “single cell productivity (qp)” value in data set [1] (setting [4]) is “increased”.
Take `CCC(=O)O` [proprionate]: in data set [3], the “expression-enhancing effect” value is “found to have such effect”.
Turning to `CC(=O)[O-].[Na+]` [sodium acetate], in data set [1] (setting [5]), the “cell growth parameters (cell growth rate and cumulative cell time)” value was “only small decreases”; the harvest antibody concentration result is recorded as “large increase”. In data set [1] (10 mM, added during mid-exponential growth phase, compared with potassium acetate at 10 mM or 15 mM), the “productivity in fed-batch shake flask culture” value is “performed even better than potassium acetate”. The effect on growth entry in data set [1] (Experiment 1, acetate supplementation) was “not to suppress growth”. The “Increases in protein yield” value in data set [1] (acetate-supplemented culture compared to control, Experiment 1) is given as “up to 98%”. Besides, the “growth suppression in terms of maximum cell density” value in data set [1] (fed-batch bioreactor, 10 mM included in production medium) is “No significant growth suppression”. Also, in data set [1] (setting [4]), the “single cell productivity (qp)” value is “increased”. This compound had a protein yield in data set [1] (grown with 10 mM acetate (control 470 mg/L)) of 768 mg/L. In addition, in data set [1] (proprietary high-density culture medium, Experiment 2), the “optimal concentration with regard to antibody yield and process robustness” value is on record as 7.5 mM. Further, in data set [2] (setting [6]), the “productivity compared to non-treated control” value is given as “enhanced productivity” and the “tolerance by the cells” value was “tolerates acetate surprisingly easily in the mM range”. Moreover, in the data set on CHO cell culture, the “protein yield enhancing effect in comparison to the butyrate control” value is on record as “literally no benefit over the control”. For the same compound, the “expression-enhancing effect” value in data set [3] is recorded as “did not differ significantly from the control”.
For the compound `CCCCC(=O)O` [valerate], the “expression-enhancing effect” value in data set [3] is reported as “found to have such effect”.
For “lipopolysaccharide [LPS, reference compound]”, in the data set with CHO cell culture, the “protein yield enhancing effect in comparison to the butyrate control” value is given as “about 4 times”.
